Assay results from US7612064B2, “Sulfopyrroles” (Takeda Pharmaceutical Company Limited, priority 2003, dated 2009).

Columns and labels:
HeLa = assay: MTS proliferation assay; type: cell-based, human; conditions: 72 h
Outline: (§1)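 Viability read-out is MTS absorbance at 492 nm after 3 h reagent incubation. It follows 72 h culture-condition treatment at four final concentrations (10, 3, 1, 0.3 μM), compounds delivered in medium holding max 5% DMSO.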

Jurkat = assay: MTS proliferation assay; type: cell-based, human; conditions: 72 h
Outline: as §1

MRC5 = assay: MTS proliferation assay; type: cell-based; conditions: MRC5, 72 h
Outline: as §1

[1] = Hoechst 33342 nuclear staining; type: cell-based; conditions: for Hoechst 33342 nuclear staining score, H460: H460 cells; for Hoechst 33342 nuclear staining score, HeLa: HeLa cells; for Hoechst 33342 nuclear staining score, Jily: Jily cells; for Hoechst 33342 nuclear staining score, Jurkat: Jurkat cells; for Hoechst 33342 nuclear staining score, MRC5: MRC5 cells; for Hoechst 33342 nuclear staining score, PBLs: key: 0: no activity; 1: weak activity comprising less than 50% of the cells; 2: strong activity comprising more than 50% of the cells;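 for all read-outs here: apoptotic nuclei scored 0 none 1 weak under 50% of cells 2 strong over 50% of cells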
Outline: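 Cells were plated in 96 well tissue culture plates in 80 μl complete medium, with 3-5*10^3 cells per well for adherent lines and 8-10*10^3 for suspension lines. Adherent cells spread for 24 h before treatment, while suspension cells were treated right after seeding. Compounds were added in 20 μl complete medium containing max 5% DMSO.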

[2] = conc 0.3 (final concentrations in μM), 24 h or 48 h incubation
[3] = conc 1 (final concentrations in μM), 24 h or 48 h incubation
[4] = conc 3 (final concentrations in μM), 24 h or 48 h incubation
[5] = conc 10 (final concentrations in μM), 24 h or 48 h incubation
[6] = conc 0.1 (final concentrations in μM), 24 h or 48 h incubation

Row | Structure (SMILES) | IC50 (HeLa) | IC50 (Jurkat) | IC50 (MRC5) | Hoechst 33342 nuclear staining score, H460 ([1]; conc 0.1) | Hoechst 33342 nuclear staining score, H460 ([1]; conc 0.3) | Hoechst 33342 nuclear staining score, H460 ([1]; conc 1) | Hoechst 33342 nuclear staining score, H460 ([1]; conc 3) | Hoechst 33342 nuclear staining score, HeLa ([1]; conc 0.1) | Hoechst 33342 nuclear staining score, HeLa ([1]; conc 0.3) | Hoechst 33342 nuclear staining score, HeLa ([1]; conc 1) | Hoechst 33342 nuclear staining score, HeLa ([1]; conc 3) | Hoechst 33342 nuclear staining score, Jily ([1]; conc 0.1) | Hoechst 33342 nuclear staining score, Jily ([1]; conc 0.3) | Hoechst 33342 nuclear staining score, Jily ([1]; conc 1) | Hoechst 33342 nuclear staining score, Jily ([1]; conc 3) | Hoechst 33342 nuclear staining score, Jurkat ([1]; conc 0.1) | Hoechst 33342 nuclear staining score, Jurkat ([1]; conc 0.3) | Hoechst 33342 nuclear staining score, Jurkat ([1]; conc 1) | Hoechst 33342 nuclear staining score, Jurkat ([1]; conc 3) | Hoechst 33342 nuclear staining score, MRC5 ([1]; conc 0.1) | further results
1 | NC(=O)c1cncc(-c2cc(-c3ccc4c(c3)OCO4)n(S(=O)(=O)c3cccc(Cl)c3)c2)c1 [Example 75] | > 1 µM | > 1 µM | > 1 µM | 0 | 0 | 0 | 0 | 0 | 0 | 0 | 0 | 0 | 0 | 0 | 0 | 0 | 0 | 0 | 0 | 0 | Hoechst 33342 nuclear staining score, MRC5 ([1]; conc 0.3): 0; Hoechst 33342 nuclear staining score, MRC5 ([1]; conc 1): 0; Hoechst 33342 nuclear staining score, MRC5 ([1]; conc 3): 0; Hoechst 33342 nuclear staining score, PBLs ([1]; conc 0.1): 0; Hoechst 33342 nuclear staining score, PBLs ([1]; conc 0.3): 0; Hoechst 33342 nuclear staining score, PBLs ([1]; conc 1): 0; Hoechst 33342 nuclear staining score, PBLs ([1]; conc 3): 0
2 | COc1cc(-c2cc(CNc3ccc4[nH]nnc4c3)cn2S(=O)(=O)c2ccc(C)cc2)cc(OC)c1OC [Example 69] | > 1 µM | < 1 µM | > 1 µM | 0 | 0 | 0 | 2 (strong activity comprising more than 50% of the cells) | 0 | 0 | 0 | 2 (strong activity comprising more than 50% of the cells) | 0 | 0 | 1 (weak activity comprising less than 50% of the cells) | 2 (strong activity comprising more than 50% of the cells) | 0 | 0 | 2 (strong activity comprising more than 50% of the cells) | 2 (strong activity comprising more than 50% of the cells) | 0 | Hoechst 33342 nuclear staining score, MRC5 ([1]; conc 0.3): 0; Hoechst 33342 nuclear staining score, MRC5 ([1]; conc 1): 0; Hoechst 33342 nuclear staining score, MRC5 ([1]; conc 3): 2 (strong activity comprising more than 50% of the cells); Hoechst 33342 nuclear staining score, PBLs ([1]; conc 0.1): 0; Hoechst 33342 nuclear staining score, PBLs ([1]; conc 0.3): 0; Hoechst 33342 nuclear staining score, PBLs ([1]; conc 1): 0; Hoechst 33342 nuclear staining score, PBLs ([1]; conc 3): 0
3 | CCN1CCN(c2ccc(NCc3cc(-c4ccc5c(c4)OCO5)n(S(=O)(=O)c4ccc(C)cc4)c3)cc2)CC1 [Example 37] | > 1 µM | > 1 µM | > 1 µM | – | – | – | – | – | – | – | – | – | – | – | – | – | – | – | – | – | Hoechst 33342 nuclear staining score, HeLa [1, 2]: 0; Hoechst 33342 nuclear staining score, HeLa [1, 3]: 0; Hoechst 33342 nuclear staining score, HeLa [1, 4]: 0; Hoechst 33342 nuclear staining score, HeLa [1, 5]: 0; Hoechst 33342 nuclear staining score, Jurkat [1, 2]: 0; Hoechst 33342 nuclear staining score, Jurkat [1, 3]: 0; Hoechst 33342 nuclear staining score, Jurkat [1, 4]: 0; Hoechst 33342 nuclear staining score, Jurkat [1, 5]: 0
4 | COc1cc(-c2cc(-c3cncc(C(=O)NCCC4CCCN4C)c3)cn2S(=O)(=O)c2ccc(C)cc2)cc(OC)c1OC.Cl (stereo not drawn) [Example 62] | > 1 µM | > 1 µM | > 1 µM | 0 | 0 | 0 | 0 | 0 | 0 | 0 | 0 | 0 | 0 | 0 | 0 | 0 | 0 | 0 | 2 (strong activity comprising more than 50% of the cells) | 0 | Hoechst 33342 nuclear staining score, MRC5 ([1]; conc 0.3): 0; Hoechst 33342 nuclear staining score, MRC5 ([1]; conc 1): 0; Hoechst 33342 nuclear staining score, MRC5 ([1]; conc 3): 0; Hoechst 33342 nuclear staining score, PBLs ([1]; conc 0.1): 0; Hoechst 33342 nuclear staining score, PBLs ([1]; conc 0.3): 0; Hoechst 33342 nuclear staining score, PBLs ([1]; conc 1): 0; Hoechst 33342 nuclear staining score, PBLs ([1]; conc 3): 0
5 | Cc1ccc(S(=O)(=O)n2cc(-c3ccc(C#N)cc3)cc2-c2ccc3c(c2)OCO3)cc1 [Example 48] | > 1 µM | > 1 µM | > 1 µM | – | – | – | – | – | – | – | – | – | – | – | – | – | – | – | – | – | Hoechst 33342 nuclear staining score, HeLa [1, 6]: 0; Hoechst 33342 nuclear staining score, HeLa [1, 2]: 0; Hoechst 33342 nuclear staining score, HeLa [1, 3]: 0; Hoechst 33342 nuclear staining score, HeLa [1, 4]: 0; Hoechst 33342 nuclear staining score, Jurkat [1, 6]: 0; Hoechst 33342 nuclear staining score, Jurkat [1, 2]: 0; Hoechst 33342 nuclear staining score, Jurkat [1, 3]: 0; Hoechst 33342 nuclear staining score, Jurkat [1, 4]: 0
6 | CCN(CC)CCNCc1cc(-c2ccc3c(c2)OCO3)n(S(=O)(=O)c2ccc(C)cc2)c1 [Example 20] | > 1 µM | > 1 µM | > 1 µM | – | – | – | – | – | – | – | – | – | – | – | – | – | – | – | – | – | Hoechst 33342 nuclear staining score, HeLa [1, 6]: 0; Hoechst 33342 nuclear staining score, HeLa [1, 2]: 0; Hoechst 33342 nuclear staining score, HeLa [1, 3]: 0; Hoechst 33342 nuclear staining score, HeLa [1, 4]: 0; Hoechst 33342 nuclear staining score, Jurkat [1, 6]: 0; Hoechst 33342 nuclear staining score, Jurkat [1, 2]: 0; Hoechst 33342 nuclear staining score, Jurkat [1, 3]: 0; Hoechst 33342 nuclear staining score, Jurkat [1, 4]: 0
